Test results reported in US20110288152A1, “PSMA BINDING LIGAND-LINKER CONJUGATES AND METHODS FOR USING” (Purdue Research Foundation, priority 2008, published 2011).
Starred links: 1 amine or outer side, 2 acyl side, 3 side chain; linkers in the order of their positions; H or OH if unused. Non-standard residues stand in square brackets, D forms with d. Residues, ends and D or L forms follow the SMILES beside them. Groups on a side chain read outwards from the residue. γGlu = O=C(O)[C@H](CCC(=O)[*:2])N[*:1]; Dap = NC[C@H](N)C(=O)O; Aoc = NCCCCCCCC(=O)O; CO = O=C([*:1])[*:2]

Legend:
[1] = biological target: T1, PSMA on LNCaP cells (Homo sapiens, UniProt Q04609); assay: Spacer-dependent binding studies of DUPA-Linker-99mTc compounds on LNCaP cells; conditions: 37° C., 1 hour, 0 nM-1280 nM, read-out: Kd from cell bound radioactivity versus concentration of DUPA-Linker-99Tc imaging agents
T1 construct: LNCaP cells (a human prostate cancer cell line over-expressing PSMA); host or cells: LNCaP
Procedure: Cells were then incubated with increasing concentrations of SK60-99 mTc (zero atom spacer), SK62-99 mTc (7 atom spacer), SK28-99 mTc (14 atom spacer), SK38-99 mTc (16 atom spacer) and SK57-99 mTc (24 atom spacer) from 0 nM-1280 nM (triplicates for each concentration) in a 5%-CO2 atmosphere at 37° C. for 1 hour. Also, in separate plates, cells was incubated with 50 uM PMPA in a 5%-CO2 atmosphere at 37° C. for 30 minutes and then incubated with increasing concentration of SK60-99 mTc (zero atom spacer), SK62-99 mTc (7 atom spacer), SK28-99 mTc (14 atom spacer), SK38-99 mTc (16 atom spacer) and SK57-99 mTc (24 atom spacer) from 0 nM-1280 nM (triplicates for each concentration) in a 5%-CO2 atmosphere at 37° C. for 1 hour (competition studies; data not shown). […] The plot of cell bound radioactivity verses concentration of the radiolabeled compound was used to calculate the Kd value. The plot of % saturation verses concentration of the radiolabeled compound as well as the plot for Kd verses spacer length are shown (FIGS. 4 and 5).

[2] = biological target: T1, PSMA on LNCaP cells; assay: Quantification of PSMA molecules on LNCaP cells (cell bound radioactivity at saturation); assay type: cell-based; conditions: for cell bound radioactivity at the saturation point: 1 hour
Procedure: Cells were then incubated with increasing concentrations of SK28-99 mTc from 0 nM-450 nM (triplicates for each concentration) in a 5%-CO2 atmosphere at 4° C. or at 37° C. for 1 hour. […] The radioactivity of a 30 nM sample of SK28-99 mTc (20 uL) was counted. At 4° C. (to prevent endocytosis of PSMA), the number of moles in the 30 nM sample=30 nM×20 uL=(30×10-9 mol/L)×(20×10-6 L)=6×10-13 mol. The number of atoms in the 30 nM sample=(6×10-13 mol)×(6.023×1023 atom/mol)=3.6×1011 atom. The radio count of 20 uL of the 30 nM sample=20477 cpm (cpm/atom=3.6×1011/20477=1.76×107). The cell bound radioactivity at the saturation point at 4° C.=12 000 cpm. The number of atoms at the saturation point=(1.76×107 atom)×(12 000 cpm). The number of cells/well=245,000.
The cell bound radioactivity at the saturation point at 37° C.=33,000 cpm (approximately three fold higher than at 4° C.).

[3] = biological target: T1, PSMA on LNCaP cells; assay: In vitro binding studies using LNCaP cells and SK28-99mTc, with and without excess PMPA; conditions: 37° C., 1 hour, 0 nM-450 nM, read-out: Kd from cell bound radioactivity versus concentration
Procedure: Cells of one 24-well plate were incubated with increasing concentrations of SK28-99 mTc from 0 nM-450 nM (triplicates for each concentration) in a 5%-CO2 atmosphere at 37° C. for 1 hour. Cells of the second 24-well plate were incubated with 50 uM PMPA in a 5%-CO2 atmosphere at 37° C. for 30 minutes, then incubated with increasing concentrations of SK28-99 mTc from 0 nM-450 nM (triplicates for each concentration) in a 5%-CO2 atmosphere at 37° C. for 1 hour (competition study). […] The competition study was used to determine the binding specificity of the ligand (DUPA) to the PSMA (FIG. 1).
LNCaP cells (150,000 cells/well) were seeded onto 24-well Falcon plates and allowed to form confluent monolayers over 48 h. Spent medium in each well was replaced with fresh medium (0.5 mL) containing increasing concentrations of DUPA-99 mTc in the presence (▴) or absence (▪) of excess PMPA. After incubating for 1 h at 37° C., cells were rinsed with culture medium (2×1.0 mL) and tris buffer (1×1.0 mL) to remove any unbound radioactivity. After suspending cells in tris buffer (0.5 mL), cell bound radioactivity was counted using a γ-counter (Packard, Packard Instrument Company). The dissociation constant (KD) was calculated using a plot of cell bound radioactivity versus the concentration of the radiotracer using nonlinear regression in GraphPad Prism 4. Error bars represent 1 standard deviation (n=3). […]

[4] = biological target: PSMA (Homo sapiens, UniProt Q04609); conditions: urea PSMA ligands of formula drawing 51, R^1 varied; cited from earlier work
PSMA, sequence (Q04609 whole entry, species assumed): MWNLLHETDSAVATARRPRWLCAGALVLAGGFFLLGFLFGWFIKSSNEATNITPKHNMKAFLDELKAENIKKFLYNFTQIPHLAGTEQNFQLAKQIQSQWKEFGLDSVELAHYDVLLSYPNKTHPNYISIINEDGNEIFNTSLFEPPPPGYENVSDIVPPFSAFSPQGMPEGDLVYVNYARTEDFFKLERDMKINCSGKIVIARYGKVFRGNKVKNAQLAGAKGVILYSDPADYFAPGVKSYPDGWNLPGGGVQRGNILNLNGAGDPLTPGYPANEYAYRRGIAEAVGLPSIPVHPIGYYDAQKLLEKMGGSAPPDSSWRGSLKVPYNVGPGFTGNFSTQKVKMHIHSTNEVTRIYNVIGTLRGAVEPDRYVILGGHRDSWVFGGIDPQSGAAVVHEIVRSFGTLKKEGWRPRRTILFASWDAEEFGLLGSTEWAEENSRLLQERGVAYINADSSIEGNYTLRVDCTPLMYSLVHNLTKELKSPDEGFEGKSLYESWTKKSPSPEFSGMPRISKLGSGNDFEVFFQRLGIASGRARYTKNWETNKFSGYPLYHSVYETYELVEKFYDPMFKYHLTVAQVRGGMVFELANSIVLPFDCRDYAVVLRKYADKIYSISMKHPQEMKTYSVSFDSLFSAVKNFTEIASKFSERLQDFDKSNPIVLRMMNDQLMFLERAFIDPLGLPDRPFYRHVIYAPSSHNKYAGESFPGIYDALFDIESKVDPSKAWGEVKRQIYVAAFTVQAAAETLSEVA

T1 sequence (Q04609 whole entry): as the sequence (Q04609 whole entry, species assumed) above

Structure (SMILES) | Kd [1] [nM] | Ki [4] [nM] | other results
N[C@@H](CNC(=O)CC[C@H](NC(=O)N[C@@H](CCC(=O)O)C(=O)O)C(=O)O)C(=O)N[C@@H](CC(=O)O)C(=O)N[C@@H](CS)C(=O)O [0-atom linker] (H-[Dap]([γGlu-CO-Glu])-Asp-Cys-OH) | 171 |  | 
N[C@@H](CNC(=O)[C@H](Cc1ccccc1)NC(=O)CC[C@H](NC(=O)CC[C@H](NC(=O)N[C@@H](CCC(=O)O)C(=O)O)C(=O)O)C(=O)O)C(=O)N[C@@H](CC(=O)O)C(=O)N[C@@H](CS)C(=O)O [7-atom linker] (H-[Dap]([Phe-γGlu-γGlu-CO-Glu])-Asp-Cys-OH) | 68 |  | 
N[C@@H](CNC(=O)CC[C@H](NC(=O)[C@H](Cc1ccccc1)NC(=O)CCCCCCCNC(=O)CC[C@H](NC(=O)N[C@@H](CCC(=O)O)C(=O)O)C(=O)O)C(=O)O)C(=O)N[C@@H](CC(=O)O)C(=O)N[C@@H](CS)C(=O)O [16-atom linker] (H-[Dap]([γGlu-Phe-Aoc-γGlu-CO-Glu])-Asp-Cys-OH) | 40 |  | 
N[C@@H](CNC(=O)[C@H](Cc1ccccc1)NC(=O)[C@H](Cc1ccccc1)NC(=O)CCCCCCCNC(=O)CC[C@H](NC(=O)N[C@@H](CCC(=O)O)C(=O)O)C(=O)O)C(=O)N[C@@H](CC(=O)O)C(=O)N[C@@H](CS)C(=O)O [SK28-^99mTc, metal not drawn] (H-[Dap]([Phe-Phe-Aoc-γGlu-CO-Glu])-Asp-Cys-OH) | 15 |  | cell bound radioactivity at saturation, 37° C. relative to 4° C. [2]: approximately three; cell bound radioactivity at the saturation point ([2]; 4° C.): 12 000 cpm; cell bound radioactivity at the saturation point ([2]; 37° C.): 33,000 cpm; Kd [3]: 18.1 nM
O=C(O)CCC(NC(=O)NC(CS)C(=O)O)C(=O)O (stereo not shown) [drawing 52 (R = H)] |  | 6.9 | 
CC(C)(C)SCC(NC(=O)NC(CCC(=O)O)C(=O)O)C(=O)O (stereo not shown) [drawing 52 (R = tert-Bu)] |  | 29 | 
